Experiments:
[1] = biological target: T1, TrkA (Homo sapiens, UniProt P04629); assay: TrkA tyrosine kinase assay (33P phosphorylation of polyGluTyr by recombinant enzyme); format: biochemical; settings: recombinant kinase domain of human TrkA, PGT substrate, 30 uM ATP
T1 construct: The kinase domain of the human TrkA receptor is expressed in Sf9 insect cells as a histidine (His)-fusion protein; His; made in house; host or cells: Sf9 insect cells (baculovirus)
Source text: The ability of compounds of the present invention to inhibit tyrosine kinase activity of TrkA may be measured using a recombinant enzyme in an assay that measures the ability of compounds to inhibit the phosphorylation of the exogenous substrate, polyGluTyr (PGT, Sigma™, 4:1). The kinase domain of the human TrkA receptor is expressed in Sf9 insect cells as a histidine (His)-fusion protein using a baculovirus expression system. The protein is purified from the lysates of these cells using an Ni-NTA affinity column. After the recombinant enzyme is purified, it is activated by incubation with cold ATP. The enzyme assay is performed in a 96-well plate. Test compounds are first dissolved in dimethylsulfoxide (DMSO) and then serially-diluted in a 96-well plate. The serially-diluted compounds are transferred to the 96-well assay plate so that the final concentration of DMSO in the enzyme assay is 1.64%. All assay components are diluted in phosphorylation buffer (20 mm MOPS, 10 mM MgCl2, 1 mM EDTA, 0.015% Brij-35, 0.1 mg/ml BSA, 0.0025% Beta-Mercaptoethanol). The recombinant enzyme is added to the assay plate containing test compound and the reaction is initiated with a substrate solution containing a final concentration of 0.1 mg/ml PGT, 30 uM ATP, and 0.008 mCi/ml ^33P-gammaATP (3000 Ci/mmol)(Perkin Elmer™) After a 1 hour incubation at 30° C., the reaction is terminated with 10% TCA and incubated at 4° C. for 1 hour. The reaction is filtered onto a Unifilter® GF/C™ filter plate (Perkin Elmer™) that has been presoaked with 0.1M NaPyrophosphate. Microscint-20 (Perkin Elmer™) is then added to the dried filter plate and the captured ^33P-phosphorylated PGT is quantitated on a microscintillation plate counter (TopCount•NXT™ (Perkin Elmer™)). Inhibition of the kinase enzymatic activity by the test compound is detected by a reduction in scintillation, and the concentration of compound that is required to inhibit the signal by 50% is reported as the IC50 value for the test compound.

[2] = biological target: T2, TrkB (Homo sapiens, UniProt Q16620); assay: TrkB tyrosine kinase assay (33P phosphorylation of polyGluTyr by recombinant enzyme); format: biochemical; settings: recombinant kinase domain of human TrkB (amino acids 526-838), PGT substrate, 30 uM ATP
T2 construct: The kinase domain of the human TrkB receptor (amino acids 526-838); His; purchased Invitrogen; host or cells: insect cells
T2 sequence (Q16620 510-822): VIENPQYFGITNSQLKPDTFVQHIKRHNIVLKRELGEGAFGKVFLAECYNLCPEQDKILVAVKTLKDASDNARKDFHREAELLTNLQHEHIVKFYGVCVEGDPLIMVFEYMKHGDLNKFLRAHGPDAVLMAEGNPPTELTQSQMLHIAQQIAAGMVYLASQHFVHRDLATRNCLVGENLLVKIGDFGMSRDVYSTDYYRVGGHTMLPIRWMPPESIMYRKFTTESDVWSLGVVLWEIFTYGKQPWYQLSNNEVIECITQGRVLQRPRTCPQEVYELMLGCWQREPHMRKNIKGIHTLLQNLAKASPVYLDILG
Experimental: The ability of compounds of the present invention to inhibit tyrosine kinase activity of TrkB may be measured using a recombinant enzyme in an assay that measures the ability of compounds to inhibit the phosphorylation of the exogenous substrate, polyGluTyr (PGT, Sigma™, 4:1). The kinase domain of the human TrkB receptor (amino acids 526-838) is expressed in insect cells as a histidine (His)-fusion protein and is commercially available from Invitrogen™. The enzyme assay is performed in a 96-well plate. Test compounds are first dissolved in dimethylsulfoxide (DMSO) and then serially-diluted in a 96-well plate. The serially-diluted compounds are transferred to the 96-well assay plate so that the final concentration of DMSO in the enzyme assay is 1.64%. All assay components are diluted in phosphorylation buffer (20 mm MOPS, 10 mM MgCl2, 1 mM EDTA, 0.015% Brij-35, 0.1 mg/ml BSA, 0.0025% Beta-Mercaptoethanol). The recombinant enzyme is added to the assay plate containing test compound and the reaction is initiated with a substrate solution containing a final concentration of 0.1 mg/ml PGT, 30 uM ATP, and 0.008 mCi/ml ^33P-gammaATP (3000 Ci/mmol) (Perkin Elmer™). After a 1 hour incubation at 30° C., the reaction is terminated with 10% TCA and incubated at 4° C. for 1 hour. The reaction is filtered onto a Unifilter® GF/C™ filter plate (Perkin Elmer™) that has been presoaked with 0.1M NaPyrophosphate. Microscint-20(Perkin Elmer™) is then added to the dried filter plate and the captured ^33P-phosphorylated PGT is quantitated on a microscintillation plate counter (TopCount•NXT™ (Perkin Elmer™)). Inhibition of the kinase enzymatic activity by the test compound is detected by a reduction in scintillation, and the concentration of compound that is required to inhibit the signal by 50% is reported as the IC50 value for the test compound.

T1 sequence (P04629 510-781 limits assumed): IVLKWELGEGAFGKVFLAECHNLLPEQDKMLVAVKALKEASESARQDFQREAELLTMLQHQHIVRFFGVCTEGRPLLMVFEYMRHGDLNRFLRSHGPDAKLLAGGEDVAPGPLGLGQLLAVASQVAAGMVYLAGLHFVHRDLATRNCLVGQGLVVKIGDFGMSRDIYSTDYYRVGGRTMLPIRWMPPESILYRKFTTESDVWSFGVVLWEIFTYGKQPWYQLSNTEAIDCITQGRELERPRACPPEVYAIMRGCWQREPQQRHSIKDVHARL

Structure (SMILES)	IC50 [1] [µM]	IC50 [2] [µM]
Cc1cc(Nc2nc(NC3CCCCC3)nn3cccc23)[nH]n1 [Compound 9, N^2-cyclohexyl-N^4-(5-methyl-1H-pyrazol-3-yl)pyrrolo[2,1-f] [1,2,4]triazine-2,4-diamine]	0.074	0.225
O[C@H]1CC[C@H](Nc2nc(Nc3cc(C4CC4)n[nH]3)c3cccn3n2)CC1 [Compound 38, trans-4-((4-((3-cyclopropyl-1H-pyrazol-5-yl)amino)pyrrolo[2,1-f] [1,2,4]triazin-2-yl)amino) cyclohexanol]	0.0005	0.0009
c1cc2c(Nc3cc(C4CC4)n[nH]3)nc(N[C@H]3CCNC3)nn2c1 [Compound 41, N^4-(3-cyclopropyl-1H-pyrazol-5-yl)-N^2-((3S)-3-pyrrolidinyl)pyrrolo [2,1-f][1,2,4]triazine-2,4-diamine]	0.018	0.031
CC(C)[C@H](CO)NC(=O)[C@H](C)Nc1nc(Nc2cc(C3CC3)n[nH]2)c2cccn2n1 [Compound 49, (2S)-2-((4-((3-cyclopropyl-1H-pyrazol-5-yl)amino)pyrrolo[2,1-f][1,2,4]triazin-2-yl)amino)-N-((1R)-1-(hydroxymethyl)-2-methylpropyl)propanamide]	0.012	0.005

Next, values leading:

IC50 [1] [µM]	IC50 [2] [µM]	Structure (SMILES)
0.0001	0.0003	C[C@H](Nc1nc(Nc2cc(C3CC3)n[nH]2)c2cccn2n1)c1ccc(F)cc1 [Compound 2, N^4-(3-cyclopropyl-1H-pyrazol-5-yl)-N^2-((1S)-1-(4-fluorophenyl)ethyl)pyrrolo[2,1-f][1,2,4]triazine-2,4-diamine]
0.006	0.035	NC1CCCC(Nc2nc(Nc3cc(C4CC4)n[nH]3)c3cccn3n2)C1 (centres unmarked) [Compound 12, N^2-(3-aminocyclohexyl)-N^4-(3-cyclopropyl-1H-pyrazol-5-yl) pyrrolo[2,1-f][1,2,4]triazine-2,4-diamine]
0.0007	0.0007	C[C@H](Nc1nc(Nc2cc(-c3ccccc3)n[nH]2)c2cccn2n1)c1ccc(F)cc1 [Compound 28, N^2-((1S)-1-(4-fluorophenyl)ethyl)-N^4-(3-phenyl-1H-pyrazol-5-yl) pyrrolo[2,1-f][1,2,4]triazine-2,4-diamine]
0.003	0.004	CCC(O)CNc1nc(Nc2cc(C3CC3)n[nH]2)c2cccn2n1 (centres unmarked) [Compound 40, 1-((4-((3-cyclopropyl-1H-pyrazol-5-yl)amino)pyrrolo[2,1-f][1,2,4]triazin-2-yl)amino)-2-butanol]
0.0003	0.0003	O=C(CNc1nc(Nc2cc(C3CC3)n[nH]2)c2cccn2n1)Nc1nccs1 [Compound 43, 2-((4-((3-cyclopropyl-1H-pyrazol-5-yl)amino)pyrrolo[2,1-f][1,2,4]triazin-2-yl)amino)-N-1,3-thiazol-2-ylacetamide]
0.001	0.002	O=C(Nc1nccs1)[C@H](Cc1ccccc1)Nc1nc(Nc2cc(C3CC3)[nH]n2)c2cccn2n1 [Compound 44, (2S)-2-((4-((5-cyclopropyl-1H-pyrazol-3-yl)amino)pyrrolo[2,1-f][1,2,4]triazin-2-yl)amino)-3-phenyl-N-1,3-thiazol-2-ylpropanamide]
